# Measurements taken from US7449447B2, “Peptidomimetic NS3-serine protease inhibitors of hepatitis C virus” (priority 2003, dated 2008).
# pKi: −log10 of the molar value. Where a SMILES comes first, the peptide text is derived from it. [ ]: non-standard residue; d: D form. The star is where a group is joined. Pro(3R,4S-CMe2) = CC1(C)[C@@H]2[C@@H](C(=O)O)NC[C@@H]21; Abu(4,4-F2) = N[C@@H](CC(F)F)C(=O)O; Phg = N[C@H](C(=O)O)c1ccccc1; Tle = CC(C)(C)[C@H](N)C(=O)O; Boc = CC(C)(C)OC(=O)*
# Biological target: T1, HCV NS3/NS4a serine protease (Hepatitis C virus genotype 1b, UniProt P26663)
# T1 construct: amino terminus of the NS3 protease domain (amino acids 3-181) with a tetrapeptide linker; made in house; host or cells: E. coli
# T1 sequence (P26663 1013-1207, looked up, natural form): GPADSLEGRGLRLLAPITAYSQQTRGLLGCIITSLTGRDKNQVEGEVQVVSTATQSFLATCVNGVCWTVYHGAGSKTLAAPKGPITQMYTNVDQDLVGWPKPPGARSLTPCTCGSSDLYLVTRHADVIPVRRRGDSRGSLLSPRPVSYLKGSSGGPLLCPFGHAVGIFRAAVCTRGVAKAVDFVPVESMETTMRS
# Experiment: Spectrophotometric assay for HCV protease inhibitory activity (chromogenic ester substrates)
# Assay type: biochemical, hepatitis C virus (strain 1b)
# Settings: Ki Rating, Table 2; single chain NS4A21-32-GSGS-NS3 3-181 protease, 30° C., pH 6.5
# Procedure, shortened: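 Single-chain NS4A(21-32)-GSGS-NS3(3-181) protease (genotype 1b) from E. coli was used at 1.3 nM in 25 mM MOPS pH 6.5 with 300 mM NaCl, 30 °C and 4% DMSO. Chromogenic ester substrate cleavage was followed as PAP release at 370 nm over 60 min. Ki was derived from vo/vi versus [I] plots assuming competitive inhibition.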
row,Compound,pKi
1,COC(=O)c1ccc(CCNC(=O)[C@H](CC(F)F)NC(=O)[C@@H]2[C@@H]3[C@H](CN2C(=O)[C@@H](NC(=O)N[C@H](C(=O)c2ccccc2)C(C)C)C(C)(C)C)C3(C)C)cc1 [Example 134],6.30 to 7.00
2,CC(C)[C@H](NC(=O)N[C@H](C(=O)N1C[C@H]2[C@@H]([C@H]1C(=O)N[C@@H](CC(F)F)C(=O)NCCc1ccc(C(=O)O)cc1)C2(C)C)C(C)(C)C)C(=O)OC(C)(C)C [Example 125],6.30 to 7.00
3,CC1(C)C[C@H]2[C@H](CN(C(=O)[C@@H](NC(=O)OCc3ccccc3)C3CCCCC3)[C@@H]2C(=O)N[C@@H](CC(F)F)C(=O)O)O1 [Example 161],< 6.30
4,COC(=O)c1ccc(CCNC(=O)[C@H](CC(F)F)NC(=O)[C@@H]2[C@@H]3[C@H](CN2C(=O)[C@@H](NC(=O)N[C@H](C(=O)OCC2CC2)C(C)(C)C)C(C)(C)C)C3(C)C)cc1 [Example 143],6.30 to 7.00
5,CN(C[C@@H](NC(=O)N[C@H](C(=O)N1C[C@H]2[C@@H]([C@H]1C(=O)NC(CC(F)F)C(=O)NCCc1ccc(C(N)=O)cc1)C2(C)C)C(C)(C)C)C(C)(C)C)S(C)(=O)=O (some centres unmarked) [Example 128],6.30 to 7.00
6,CC(C)[C@H](NC(=O)N[C@H](C(=O)N1C[C@H]2[C@@H]([C@H]1C(=O)N[C@@H](CC(F)F)C(=O)NCCC(=O)OC(C)(C)C)C2(C)C)C(C)(C)C)C(=O)OC(C)(C)C [Example 174],< 6.30
7,CC(C)[C@H](NC(=O)N[C@H](C(=O)N1C[C@H]2[C@@H]([C@H]1C(=O)NC(CC(F)F)C(=O)NCCc1ccccc1Cl)C2(C)C)C(C)(C)C)C(=O)OC(C)(C)C (some centres unmarked) [Example 147],< 6.30
8,CC1(NC(=O)N[C@H](C(=O)N2C[C@H]3[C@@H]([C@H]2C(=O)NC(CC(F)F)C(=O)NCCc2ccccc2)C3(C)C)C(C)(C)C)CCCCC1 (some centres unmarked) [Example 145],< 6.30
9,COC(=O)c1ccc(CCNC(=O)C(CC(F)F)NC(=O)[C@@H]2[C@@H]3[C@H](CN2C(=O)[C@@H](NC(=O)N[C@H](C(=O)OC(C)(C)C)C(C)C)C(C)(C)C)C3(C)C)cc1 (some centres unmarked) [Example 149],< 6.30
10,CC(C)[C@H](NC(=O)N[C@H](C(=O)N1C[C@H]2[C@@H]([C@H]1C(=O)NC(CC(F)F)C(=O)NCCc1ccccc1)C2(C)C)C(C)(C)C)C(=O)O (some centres unmarked) [Example 136],6.30 to 7.00
11,CC(C)[C@H](NC(=O)N[C@H](C(=O)N1C[C@@H]2OC(C)(C)C[C@@H]2[C@H]1C(=O)N[C@@H](CC(F)F)C(=O)NCCc1ccccc1)C1CCCCC1)C(=O)OC(C)(C)C [Example 152],< 6.30
12,"CN(C)C(=O)[C@@H](NC(=O)CNC(=O)[C@H](CC(F)F)NC(=O)[C@@H]1[C@@H]2[C@H](CN1C(=O)[C@@H](NC(=O)OC(C)(C)C)C(C)(C)C)C2(C)C)c1ccccc1 [Example 171] (Boc-[Tle][Pro(3R,4S-CMe2)][Abu(4,4-F2)]G[Phg]-NMe2)",< 6.30

# Same assay, conditions: Ki, Table 1; single chain NS4A21-32-GSGS-NS3 3-181 protease, 30° C., pH 6.5
row,Compound,pKi
1,COC(=O)c1ccc(CCNC(=O)[C@H](CC(F)F)NC(=O)[C@@H]2C3C(CN2C(=O)[C@@H](NC(=O)N[C@H](CN(C)S(C)(=O)=O)C(C)(C)C)C2CCCCC2)C3(C)C)cc1 (some centres unmarked) [Example 101],7.96
2,COC(=O)c1ccc(CCNC(=O)[C@H](CC(F)F)NC(=O)[C@@H]2[C@@H]3[C@H](CN2C(=O)[C@@H](NC(=O)N[C@H](CN(C)S(C)(=O)=O)C(C)(C)C)C(C)(C)C)C3(C)C)cc1 [Example 103],7.66
3,COC(=O)c1ccc(CCNC(=O)[C@H](CC(F)F)NC(=O)[C@@H]2[C@@H]3[C@H](CN2C(=O)[C@@H](NC(=O)N[C@H](CN(C)S(=O)(=O)c2ccccc2)C(C)C)C(C)(C)C)C3(C)C)cc1 [Example 116],7.00
4,CN(C[C@@H](NC(=O)N[C@H](C(=O)N1C[C@H]2[C@@H](C1C(=O)N[C@@H](CC(F)F)C(=O)NCCc1ccc(C(N)=O)cc1)C2(C)C)C(C)(C)C)C(C)(C)C)S(C)(=O)=O (some centres unmarked) [Example 106],7.57
5,CN(C[C@@H](NC(=O)N[C@H](C(=O)N1C[C@H]2[C@@H](C1C(=O)NC(CC(F)F)C(=O)NCCc1ccc(C(=O)O)cc1)C2(C)C)C(C)(C)C)C(C)(C)C)S(C)(=O)=O (some centres unmarked) [Example 104],7.62
6,COC(=O)c1ccc(CCNC(=O)[C@H](CC(F)F)NC(=O)[C@@H]2[C@@H]3[C@H](CN2C(=O)[C@@H](NC(=O)N[C@H](CN2CCCS2(=O)=O)C(C)(C)C)C(C)(C)C)C3(C)C)c(Cl)c1 [Example 108],7.52
7,CC(C)(C)[C@H](NC(=O)NC1(CS(C)(=O)=O)CCCCC1)C(=O)N1C[C@H]2[C@@H](C1C(=O)N[C@@H](CC(F)F)C(=O)NCCc1ccc(C(=O)O)cc1)C2(C)C (some centres unmarked) [Example 107],7.54

# Same assay, conditions: Ki, Table 3; rating; single chain NS4A21-32-GSGS-NS3 3-181 protease, 30° C., pH 6.5
row,Compound,pKi
1,CN(C[C@@H](NC(=O)N[C@H](C(=O)N1C[C@H]2[C@@H]([C@H]1C(=O)N[C@@H](CC(F)F)C(=O)NC1CCCc3ccccc31)C2(C)C)C(C)(C)C)C(C)(C)C)S(C)(=O)=O (some centres unmarked) [Example 224],< 6.30
2,COc1cccc(CCNC(=O)[C@H](CC(F)F)NC(=O)[C@@H]2[C@@H]3[C@H](CN2C(=O)[C@@H](NC(=O)N[C@H](CN(C)S(C)(=O)=O)C(C)(C)C)C(C)(C)C)C3(C)C)c1OC [Example 277],6.30 to 7.00
3,CN(C[C@@H](NC(=O)N[C@H](C(=O)N1C[C@H]2[C@@H]([C@H]1C(=O)N[C@@H](CC(F)F)C(=O)N[C@@H]1C[C@@H]1c1ccccc1)C2(C)C)C(C)(C)C)C(C)(C)C)S(C)(=O)=O [Example 308],> 7.00
4,CN(C[C@@H](NC(=O)N[C@H](C(=O)N1C[C@H]2[C@@H]([C@H]1C(=O)N[C@@H](CC(F)F)C(=O)NCCc1cccc(Cl)c1)C2(C)C)C(C)(C)C)C(C)(C)C)S(C)(=O)=O [Example 202],> 7.00
5,CN(C[C@@H](NC(=O)N[C@H](C(=O)N1C[C@H]2[C@@H]([C@H]1C(=O)N[C@@H](CC(F)F)C(=O)NCCc1ccccn1)C2(C)C)C(C)(C)C)C(C)(C)C)S(C)(=O)=O [Example 235],6.30 to 7.00
6,CN(C[C@@H](NC(=O)N[C@H](C(=O)N1C[C@H]2[C@@H]([C@H]1C(=O)N[C@@H](CC(F)F)C(=O)N1CCc3ccccc3C1)C2(C)C)C(C)(C)C)C(C)(C)C)S(C)(=O)=O [Example 302],< 6.30
7,CN(C[C@@H](NC(=O)N[C@H](C(=O)N1C[C@H]2[C@@H]([C@H]1C(=O)N[C@@H](CC(F)F)C(=O)NCCc1ccc(O)cc1)C2(C)C)C(C)(C)C)C(C)(C)C)S(C)(=O)=O [Example 245],> 7.00
8,CN(C[C@@H](NC(=O)N[C@H](C(=O)N1C[C@H]2[C@@H]([C@H]1C(=O)N[C@@H](CC(F)F)C(=O)NCCCN1CCOCC1)C2(C)C)C(C)(C)C)C(C)(C)C)S(C)(=O)=O [Example 242],< 6.30
9,CN(C[C@@H](NC(=O)N[C@H](C(=O)N1C[C@H]2[C@@H]([C@H]1C(=O)N[C@@H](CC(F)F)C(=O)NCCCN1CCCC1=O)C2(C)C)C(C)(C)C)C(C)(C)C)S(C)(=O)=O [Example 223],< 6.30
10,COc1ccccc1CCNC(=O)[C@H](CC(F)F)NC(=O)[C@@H]1[C@@H]2[C@H](CN1C(=O)[C@@H](NC(=O)N[C@H](CN(C)S(C)(=O)=O)C(C)(C)C)C(C)(C)C)C2(C)C [Example 269],> 7.00
11,COc1cc(CCNC(=O)[C@H](CC(F)F)NC(=O)[C@@H]2[C@@H]3[C@H](CN2C(=O)[C@@H](NC(=O)N[C@H](CN(C)S(C)(=O)=O)C(C)(C)C)C(C)(C)C)C3(C)C)ccc1O [Example 294],> 7.00
12,CN(C[C@@H](NC(=O)N[C@H](C(=O)N1C[C@H]2[C@@H]([C@H]1C(=O)N[C@@H](CC(F)F)C(=O)NCCc1cccs1)C2(C)C)C(C)(C)C)C(C)(C)C)S(C)(=O)=O [Example 216],> 7.00
13,CN(C[C@@H](NC(=O)N[C@H](C(=O)N1C[C@H]2[C@@H]([C@H]1C(=O)N[C@@H](CC(F)F)C(=O)N1Cc3ccccc3C1)C2(C)C)C(C)(C)C)C(C)(C)C)S(C)(=O)=O [Example 301],< 6.30
14,COc1cc(CCNC(=O)[C@H](CC(F)F)NC(=O)[C@@H]2[C@@H]3[C@H](CN2C(=O)[C@@H](NC(=O)N[C@H](CN(C)S(C)(=O)=O)C(C)(C)C)C(C)(C)C)C3(C)C)cc(OC)c1 [Example 278],6.30 to 7.00
15,CN(C[C@@H](NC(=O)N[C@H](C(=O)N1C[C@H]2[C@@H]([C@H]1C(=O)N[C@@H](CC(F)F)C(=O)NCC(c1ccccc1)c1ccccc1)C2(C)C)C(C)(C)C)C(C)(C)C)S(C)(=O)=O [Example 228],< 6.30
16,CN(C[C@@H](NC(=O)N[C@H](C(=O)N1C[C@H]2[C@@H]([C@H]1C(=O)N[C@@H](CC(F)F)C(=O)N[C@H]1CCCC[C@H]1OCc1ccccc1)C2(C)C)C(C)(C)C)C(C)(C)C)S(C)(=O)=O [Example 256],< 6.30
17,CN(C[C@@H](NC(=O)N[C@H](C(=O)N1C[C@H]2[C@@H]([C@H]1C(=O)N[C@@H](CC(F)F)C(=O)NCC1CCCO1)C2(C)C)C(C)(C)C)C(C)(C)C)S(C)(=O)=O (some centres unmarked) [Example 210],< 6.30
18,CC1(C)CC(=O)N(C[C@@H](NC(=O)N[C@H](C(=O)N2C[C@H]3[C@@H]([C@H]2C(=O)N[C@@H](CC(F)F)C(=O)NCCc2c(F)cccc2F)C3(C)C)C(C)(C)C)C(C)(C)C)C(=O)C1 [Example 309],> 7.00
19,CN(C[C@@H](NC(=O)N[C@H](C(=O)N1C[C@H]2[C@@H]([C@H]1C(=O)N[C@@H](CC(F)F)C(=O)NC1Cc3ccccc3C1)C2(C)C)C(C)(C)C)C(C)(C)C)S(C)(=O)=O [Example 218],< 6.30
20,CC(C)CCNC(=O)[C@H](CC(F)F)NC(=O)[C@@H]1[C@@H]2[C@H](CN1C(=O)[C@@H](NC(=O)N[C@H](CN(C)S(C)(=O)=O)C(C)(C)C)C(C)(C)C)C2(C)C [Example 208],< 6.30
21,COc1cc(CCNC(=O)[C@H](CC(F)F)NC(=O)[C@@H]2[C@@H]3[C@H](CN2C(=O)[C@@H](NC(=O)N[C@H](CN(C)S(C)(=O)=O)C(C)(C)C)C(C)(C)C)C3(C)C)cc(OC)c1O [Example 297],6.30 to 7.00
22,CN(C[C@@H](NC(=O)N[C@H](C(=O)N1C[C@H]2[C@@H]([C@H]1C(=O)N[C@@H](CC(F)F)C(=O)NC1CC1)C2(C)C)C(C)(C)C)C(C)(C)C)S(C)(=O)=O [Example 203],< 6.30
